The results in this text go back to ChEMBL document CHEMBL5604062, “ASAP - ZIKV NS2B-NS3 protease fluorescence dose response” (2024).

“And” between values parts separate entries of the source, which are not always exact repeats. Equal entries are not always repeated.

The assay deals with Nonstructural protein 3 (Zika virus, UniProt A0A024AXB9). As to the kind of experiment: Functional biochemical assay to identify treatments for viral infectious disease that targets Zika NS2B-NS3 protease. Utilizing a direct enzyme activity measurement method, reading the fluorescence intensity is used to characterize the relative potency of inhibitors as IC50. More on the design: species or system PRVABC59.
Chain of Nonstructural protein 3 (A0A024AXB9 whole entry): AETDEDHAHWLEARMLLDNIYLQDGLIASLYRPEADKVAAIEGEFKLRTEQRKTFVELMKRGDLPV
`CCn1nc(C)c(CN(C)Cc2ccc3c(c2)CCNCC3)c1C` registered an IC50 of more than 99.5 µM.
`CC[C@@H](C)c1nc(C)cc(N2CCC(n3ncc(N)c3C(F)(F)F)CC2)n1` yielded an IC50 of more than 99.5 µM.
Regarding `CCc1cc(F)ccc1CC(=O)N1CCCc2cc(CCN)ccc21`, the IC50 was more than 99.5 µM.
The same measure for `Cc1cc(C)c([C@@H](NC(=O)OCc2ccccc2)C(=O)Nc2cccc(CN)c2)c(C)c1`: more than 99.5 µM; for `Cn1cc(C(=O)N[C@@H](C(=O)Nc2cccc(CN)c2)c2ccc(OCc3ccccc3)cc2)cn1`: more than 99.5 µM.
Take `CCc1cc(COc2ccc(S(=O)(=O)Nc3ccc(Cl)cc3C(=O)O)cc2)no1`: the IC50 was more than 99.5 µM.
On to `O=Cc1ccc(F)c(C(=O)N2CCN(C3=NCCCN3)CC2)c1`, for which the IC50 is more than 99.5 µM.
`CCn1cnnc1COc1ccc(S(=O)(=O)Nc2ccc(Cl)cc2C(=O)O)cc1`: the IC50 is more than 99.5 µM.
Regarding `N[C@H]1CCc2cc(-c3ccn(-c4ccccc4)n3)ccc2C1`, the 50% inhibitory concentration (IC50) is more than 99.5 µM.
To `Cc1ccc(F)c2c1CCN(Cc1ccn(C3CNC3)c1)C2` belongs more than 99.5 µM; to `COc1ccc(CNC(=O)[C@@H](NC(=O)OCc2ccccc2)c2ccc(OCc3ccccc3)cc2)cn1`, more than 99.5 µM; to `CC(C)(C)c1cc(N2CCN(c3cccc4[nH]ncc34)CC2)nc(C(=O)O)n1`, more than 99.5 µM.
`Cc1ocnc1COc1ccc(S(=O)(=O)Nc2ccc(Cl)cc2C(=O)O)cc1` returned an IC50 of more than 99.5 µM.
Compound `O=C(N[C@@H](C(=O)NCc1cn[nH]c1)c1ccc(OCc2ccccc2)cc1)OCc1ccccc1` showed a half-maximal inhibitory concentration (IC50) of more than 99.5 µM.
The same measure for `COC(=O)[C@@H](C)NC(=O)c1cc(Cl)ccc1NS(=O)(=O)c1ccc(Oc2ccccc2Cl)cc1`: more than 99.5 µM; for `O=C(Nc1cccnc1)c1cc(Cl)ccc1NS(=O)(=O)c1ccc(Oc2ccccc2Cl)cc1`: more than 99.5 µM; for `Cc1cccnc1COc1ccc(S(=O)(=O)Nc2ccc(Cl)cc2C(=O)O)cc1`: more than 99.5 µM.
`O=C(N[C@@H](C(=O)NCc1cnccn1)c1ccc(OCc2ccccc2)cc1)OCc1ccccc1` displayed an IC50 of more than 99.5 µM.
For `N#Cc1c(C(F)F)cccc1N1CCC(n2ncc(N)c2C(F)(F)F)CC1`, the IC50 was more than 99.5 µM.
Take `O=C(N[C@@H](C(=O)Nc1ccncc1)c1ccc(OCc2ccccc2)cc1)OCc1ccccc1`: the IC50 was more than 99.5 µM.
Take `O=C(O)c1cc(Cl)ccc1NS(=O)(=O)c1ccc(OCc2ccccn2)cc1`: the IC50 was more than 99.5 µM.
For the compound `CC(C)(C)OC(=O)N1C[C@@H](O)[C@H](c2c[nH]c3ccccc23)C1`, the IC50 is more than 99.5 µM.
Consider `Cn1c(COc2ccc(S(=O)(=O)Nc3ccc(Cl)cc3C(=O)O)cc2)nnc1C1CC1`, for which the IC50 is more than 99.5 µM.
For `N[C@H]1CC[C@H](NC(=O)[C@@H](NC(=O)OCc2ccccc2)c2ccc(OCc3ccccc3)cc2)CC1`, the IC50 is more than 99.5 µM.
The compound `NCc1ccnc(CNC(=O)[C@@H](NC(=O)OCc2ccccc2)c2ccc(OCc3ccccc3)cc2)c1` came in with an IC50 of 93.7 µM. In other words, the double-digit micromolar range.
For the compound `NCc1cccc(NC(=O)[C@@H](NC(=O)OCc2ccccc2)c2ccc(C(F)(F)F)cc2)c1`, the IC50 came to 79.2 µM.
Compound `CN1CCN(Cc2ccccc2CNC(=O)[C@@H](NC(=O)OCc2ccccc2)c2ccc(OCc3ccccc3)cc2)CC1` returned a half-maximal inhibitory concentration (IC50) of more than 99.5 µM.
In the case of `Cc1ccc2c(c1)CN(C(=O)c1ccc(C3(CN)CC3)cc1)C(C)(C)C2`, the IC50 was more than 99.5 µM.
The same measure for `Cc1ncccc1-c1ccc([C@@H](NC(=O)OCc2ccccc2)C(=O)Nc2cccc(CN)c2)cc1`: 98.1 µM; for `O=C(N[C@@H](C(=O)Nc1ccc2c(n1)CNC2)c1ccc(OCc2ccccc2)cc1)OCc1ccccc1`: more than 99.5 µM.
On to `NCc1cccc(NC(=O)[C@@H]2Cc3ccc(OCc4ccccc4)cc3CN2C(=O)OCc2ccccc2)c1`, for which inhibition was half-maximal at 21.7 µM (IC50). This lies in the double-digit micromolar range.
With `NCC1(c2ccc(C(=O)N3CCc4scc(Br)c4C3)cc2)CC1`, the IC50 was more than 99.5 µM.
`NCc1cccc(CNC(=O)[C@@H](NC(=O)OCc2ccccc2)c2ccc(OCc3ccccc3)cc2)n1`: it took 65.6 µM to reach half-maximal inhibition (IC50).
With `O=C(O)c1cc(Cl)cc(F)c1NS(=O)(=O)c1ccc(Oc2ccccc2Cl)cc1`, the half-inhibitory concentration (IC50) was determined as 67 µM.
Consider `CCOCCNC(=O)c1cc(Cl)ccc1NS(=O)(=O)c1ccc(Oc2ccccc2Cl)cc1`, for which the IC50 was 90.4 µM and > 99.5 µM.
Compound `O=C(O)c1cc(Cl)ccc1NS(=O)(=O)c1ccc(OCc2cccnn2)cc1` gave an IC50 of more than 99.5 µM.
On to `NCCc1ccc(CNC(=O)[C@@H](NC(=O)OCc2ccccc2)c2ccc(OCc3ccccc3)cc2)cc1`, for which the IC50 is 16.3 µM and 13.9 µM.
As for `Cn1c(C(=O)N2CCCc3ccc(C(F)F)cc32)cc2c1CCNC2`, the IC50 is more than 99.5 µM.
The same measure for `NCCCc1ccc(C(=O)N2CC(c3cccc(Br)c3)C2)cc1`: more than 99.5 µM.
Take `N[C@H]1CC[C@H](CNC(=O)[C@@H](NC(=O)OCc2ccccc2)c2ccc(OCc3ccccc3)cc2)CC1`: the IC50 was more than 99.5 µM.
As to `Cc1ccc(CNC(=O)[C@@H](NC(=O)OCc2ccccc2)c2ccc(OCc3ccccc3)cc2)cn1`, the IC50 is more than 99.5 µM.
In turn, `CN(C(=O)c1ccc2c(c1)[C@H](CN)CCC2)C1CCN(CC(F)F)CC1` came in with an IC50 of more than 99.5 µM.
For `NCc1cccc(NC(=O)[C@@H](NC(=O)c2cccnc2)c2ccc(OCc3ccccc3)cc2)c1`, the IC50 is more than 99.5 µM.
For `Cc1cc(C=O)c(O)c(C(=O)N2CC[C@H](CN(C)C)C2)c1`, the IC50 was more than 99.5 µM.
To `C[C@@H](Oc1ccc(S(=O)(=O)Nc2ccc(Cl)cc2C(=O)O)cc1)c1ccccc1F` belongs 25.1 µM.
`CC(C)CNC(=O)c1cc(Cl)ccc1C=Cc1ccc(Oc2ccccc2Cl)cc1` had an IC50 of more than 99.5 µM.
For the compound `Cc1n[nH]c2cc(C(=O)N3CCC(C)(NC(=O)[C@H]4C[C@H](N(C)C)C4)CC3)ccc12`, the IC50 is more than 99.5 µM.
The same measure for `NCc1ccc(CNC(=O)[C@@H](NC(=O)OCc2ccccc2)c2ccc(OCc3ccccc3)cc2)cc1`: 14.2 µM and 11.5 µM; for `NCc1ccccc1C1CCN(C(=O)[C@@]23CNC[C@]2(C(F)(F)F)C3)CC1`: more than 99.5 µM.
In the case of `O=C(c1cc(Cl)ccc1NS(=O)(=O)c1ccc(Oc2ccccc2Cl)cc1)N1CCNCC1`, the IC50 is more than 99.5 µM.
For the compound `O=C(N[C@@H](C(=O)NCc1ccc(CN2CCCC2)cc1)c1ccc(OCc2ccccc2)cc1)OCc1ccccc1`, the IC50 is more than 99.5 µM.
In the case of `O=C(N[C@H](C(=O)NCc1ccccc1CO)c1ccc(OCc2ccccc2)cc1)OCc1ccccc1`, the 50% inhibitory concentration (IC50) is more than 99.5 µM.
As to `O=C(N[C@@H](C(=O)NCc1cccc(CN2CCCCC2)c1)c1ccc(OCc2ccccc2)cc1)OCc1ccccc1`, the IC50 is more than 99.5 µM.
As to `O=C(NC1CCCCC1)c1cc(Cl)ccc1NS(=O)(=O)c1ccc(Oc2ccccc2Cl)cc1`, the IC50 is more than 99.5 µM.
With `NCc1ccccc1C1CCN(C(=O)[C@H]2CCN3CC[C@H]2C3)CC1`, the 50% inhibitory concentration (IC50) was more than 99.5 µM.
As to `NCc1cccc(NC(=O)[C@H]2c3ccc(Br)cc3OCCN2C(=O)OCc2ccccc2)c1`, the IC50 was more than 99.5 µM.
`NC[C@H]1CC[C@@H](CNC(=O)[C@@H](NC(=O)OCc2ccccc2)c2ccc(OCc3ccccc3)cc2)CC1` registered an IC50 of 58.2 µM. That is a double-digit micromolar value.
Turning to `Cc1ccc([C@@H](NC(=O)OCc2ccccc2)C(=O)Nc2cccc(CN)c2)cc1C`, the IC50 was more than 99.5 µM.
On to `CS(=O)(=O)NCc1cccc(CNC(=O)[C@@H](NC(=O)OCc2ccccc2)c2ccc(OCc3ccccc3)cc2)c1`, for which the IC50 is more than 99.5 µM.
For `C[C@@H](O)c1cccc(N2CCC(c3nc(N)ncc3F)CC2)n1`, the IC50 is more than 99.5 µM.
Compound `CN(C)C(=O)[C@@H](NC(=O)OCc1ccccc1)c1ccc(OCc2ccccc2)cc1` yielded an IC50 of more than 99.5 µM.
In turn, `CCCCCN(C)C(=O)c1cc(Cl)ccc1NS(=O)(=O)c1ccc(Oc2ccccc2Cl)cc1` registered an IC50 of more than 99.5 µM.
`O=C(O)c1cc(Cl)ccc1NS(=O)(=O)c1ccc(OCc2cccnc2)cc1`: the IC50 was more than 99.5 µM.
The same measure for `CN(C)CCc1ccc(CNC(=O)[C@@H](NC(=O)OCc2ccccc2)c2ccc(OCc3ccccc3)cc2)cc1`: 54.6 µM; for `O=C(N[C@H](C(=O)NCc1cccc(CO)n1)c1ccc(OCc2ccccc2)cc1)OCc1ccccc1`: more than 99.5 µM; for `NCc1cccc(NC(=O)[C@@H](NC(=O)OCc2ccccc2)c2ccc(OCc3ccncc3)cc2)c1`: 90 µM.
Compound `O=C(N[C@@H](C(=O)NCc1cccc2c1CCNC2)c1ccc(OCc2ccccc2)cc1)OCc1ccccc1` gave an IC50 of 39.4 µM.
The compound `O=C(N[C@H](C(=O)NCc1cccc(CO)c1)c1ccc(OCc2ccccc2)cc1)OCc1ccccc1` came in with an IC50 of more than 99.5 µM.
`C[C@@H](NC(=O)C1CCN(c2cccc(C(N)=O)n2)CC1)[C@H]1CCCNC1` gave an IC50 of more than 99.5 µM.
For `C[C@@H](NC(=O)c1cc(Cl)ccc1NS(=O)(=O)c1ccc(Oc2ccccc2Cl)cc1)C(=O)O`, the IC50 was more than 99.5 µM.
With `Cc1cc(CNC(=O)[C@@H](NC(=O)OCc2ccccc2)c2ccc(OCc3ccccc3)cc2)cc(C)n1`, the IC50 was more than 99.5 µM.
The same measure for `NC[C@H]1CC[C@H](NC(=O)[C@@H](NC(=O)OCc2ccccc2)c2ccc(OCc3ccccc3)cc2)CC1`: 81.2 µM; for `CCN(CC(=O)NC)C(=O)c1cc(Cl)ccc1NS(=O)(=O)c1ccc(Oc2ccccc2Cl)cc1`: more than 99.5 µM.
Compound `NCc1ccc2c(c1)CCC[C@H]2NCc1cc(Cl)cc2c1OCC2` had a half-inhibitory concentration (IC50) of 61.4 µM.
Compound `NC[C@H]1CC[C@H](CNC(=O)[C@@H](NC(=O)OCc2ccccc2)c2ccc(OCc3ccccc3)cc2)CC1` showed an IC50 of 80.3 µM.
The same measure for `O=C(N[C@@H](C(=O)Nc1ccccn1)c1ccc(OCc2ccccc2)cc1)OCc1ccccc1`: more than 99.5 µM; for `NCc1cccc(NC(=O)[C@H]2c3ccc(Br)cc3CCN2C(=O)OCc2ccccc2)c1`: 53.8 µM.
To `CN1CCN(Cc2cccc(CNC(=O)[C@@H](NC(=O)OCc3ccccc3)c3ccc(OCc4ccccc4)cc3)c2)CC1` belongs more than 99.5 µM; to `O=S(=O)(Nc1ccc(Cl)cc1CN(CC1CC1)CC1CC1)c1ccc(Oc2ccccc2Cl)cc1`, 32 µM.
On to `CCc1ccc([C@@H](NC(=O)OCc2ccccc2)C(=O)Nc2cccc(CN)c2)cc1`, for which the 50% inhibitory concentration (IC50) was more than 99.5 µM.
Take `NCc1cccc(NC(=O)[C@@H](NC(=O)OCc2ccccc2)c2ccc(-c3cccc4c3CCO4)cc2)c1`: half-maximal inhibition (IC50) was put at 14 µM. This lies in the double-digit micromolar range.
Consider `Nc1ccc(CNC(=O)[C@@H](NC(=O)OCc2ccccc2)c2ccc(OCc3ccccc3)cc2)nc1`, for which the IC50 was more than 99.5 µM.
Regarding `NCc1cccc(NC(=O)[C@@H](NC(=O)OCc2ccccc2)c2ccc(-c3cccc(F)c3)cc2)c1`, the IC50 was 7.19 µM and 6.8 µM.

A word on the IC50: it is the concentration that inhibits the measured activity by half.
